Measured values taken from patent EP0104300A1, “Diazolyl alkanoles, process for their preparation and their use as antimycotic agents” (BAYER AG, priority 1982, dated 1984).

System: Candida-Zellen
Test: Antimycotic in-vivo efficacy (oral) in mouse candidosis
Parameters: species or system Mäuse vom Typ SPF-CF1; key: +++++: sehr gute Wirkung = 90 % Ueberlebende am 6.Tag p.i.; ++++: gute Wirkung = 80 % Ueberlebende am 6 Tag p.i.; +++: Wirkung = 60 % Ueberlebende am 6. Tag p.i.; ++: schwache Wirkung = 40 % Ueberlebende am 6.Tag p.i.; +: Spur Wirkung =; k.W.: keine Wirkung
Details: mice infected i.v. with 1 - 2 x 10^6 Candida cells; oral treatment with 50 - 100 mg/kg each, 1 h before and 7 h after infection; survivors on day 6 p.i.
Procedure: Antimykotische in-vivo-Wirksamkeit (oral) bei Mäusecandidose Versuchsbeschreibun:
Mäuse vom Typ SPF-CF1 wurden intravenös mit 1 - 2 x 10^6 logarithmisch wachsenden Candida-Zellen, die in physiologischer Kochsalzlösung suspendiert werden, infiziert. Eine Stunde vor und sieben Stunden nach der Infektion werden die Tiere mit jeweils 50 - 100 mg/kg Körpergewicht der Präparate oral behandelt.
Unbehandelte Tiere starben 3 bis 6 Tage post infektionem. Die Ueberlebensrate am 6.Tag post infektionem betrug bei unbehandelten Kontrolltieren etwa 5 %. In diesem Test zeigten z.B. die erfindungsgemäßen Verbindungen eine bessere Wirkung als die aus dem Stand der Technik bekannten Verbindungen 1 und 3.
+++++ = sehr gute Wirkung = 90 % Ueberlebende am 6.Tag p.i. ++++ = gute Wirkung = 80 % Ueberlebende am 6 Tag p.i. +++ = Wirkung = 60 % Ueberlebende am 6. Tag p.i. ++ = schwache Wirkung = 40 % Ueberlebende am 6.Tag p.i. + = Spur Wirkung = k.W. = keine Wirkung

With `OC(Cc1ccc(Cl)cc1Cl)(Cn1ccnc1)c1ccc(-c2ccccc2)cc1` (centres unmarked) [(A), 2-(4-Biphenylyl)-1-(2,4-dichlorphenyl)-3-(imidazoL-1-yL)-2-propanoL] the Wirkung was “k.W”.

For `CC(C)(C)C(O)(COc1ccc(Cl)cc1)Cn1ccnc1` (centres unmarked) [(B), 2-(4-Chlorphenoxymethyl)-3,3-dimethyl-1-(imidazol-1-yl)-butan-2-ol], the Wirkung was “k.W”.

`Cc1ccccc1OCC(O)(Cn1ccnc1)C(C)(C)C` (centres unmarked) [(C)] was tested, and the Wirkung was “k.W”.

For `OC(C#Cc1ccccc1)(Cn1cncn1)Cn1cncn1` [Beispiel 1, 3-Hydroxy-1-phenyL-4-(1,2,4-triazol-1-yl)-3-(1,2,4-triazol-1-yl-methyl)-1-butin], the Wirkung was “+++ (Wirkung = 60 % Ueberlebende am 6. Tag p.i.)”.

`OC(C#Cc1ccc(Cl)cc1)(Cn1cncn1)Cn1cncn1` [Beispiel 3] was tested, and the Wirkung was “+++++ (sehr gute Wirkung = 90 % Ueberlebende am 6.Tag p.i.)”.
